The source of these data is patent publication US10710964B2, “Organic electrolyte compounds for redox-flow batteries” (FUNDACIÓN CENTRO DE INVESTIGACIÓN COOPERATIVA DE ENERGÍAS …, priority 2015, dated 2020).

≈ marks a conversion by molar mass, not a printed value.

One may read the solubility as how much of the substance goes into solution per volume. High values mean a readily soluble substance, low ones a poorly soluble substance.

What all share (format): physicochemical
Data set [1] can be described thus: Experimental density of the electrolyte solutions. An excerpt: Considering the two electron-proton process taking place in the present redox molecules, for a constant amount of grams of salt the optimization of the final concentration will be a balance between the molecular weight and the packing density of the organic compounds in the electrolyte solution. Highest concentration values and subsequently of chemical-electrical energy density stored in the present systems would be achieved as higher the packing density and lower the molecular weight of the molecule. The experimental density of the present solutions containing the redox neutral salts were measured. Densities of 1.04 g/ml, 1.00 g/ml and 0.95 g/ml were measured for solutions 1.23 M of Alizarine SH in H2O, 1.17 M of Alizarine SH in H2O and 1.46 M of Alizarine SH in 0.1 M HClO4 respectively.

Data set [2] can be described thus: Solubility studies (maximum concentration in aqueous media). As to conditions: for solubility: 0.1 M HClO4, room temperature; for solubility (concentration values): medium not given. As to the method: These were conducted in glass vials of 25 ml volume in which the organic electrolyte compound mass ranging between 15-30 mg approximately was dissolved in DI-H2O and also in the different supporting electrolytes. The procedure was performed in the following steps: after the addition of the solid, a small volume (usually starting from 25 μl) was added by using a micropipette, the suspension was vigorously shaken by hand until complete homogenization of the media in the whole vial (bottom part and walls) was observed. After that, the vials are left standing overnight. The day after, possible precipitation at the bottom of the vial was evaluated. If some solid appeared, the addition of more volume of solvent and/or supporting electrolyte was continued until the solid disappeared completely. […] The final concentration value was only calculated for those samples showing a stable solution after several weeks.

The nature of data set [3]: Cyclic voltammetry in cavity micro-electrode, three-electrode cell. As to conditions: for shift of redox potential on sulphonation, lower oxidation state / shift of redox potential on sulphonation, upper oxidation state: 0.1 M HClO4, sulphonated form in comparison to the parent molecule. As to the method:
Attenuated Total Reflectance-Fourier Transform InfraRed (ATR-FTIR) spectra were recorded on Vertex 70 spectrometer (Bruker) in the range of wavelength of 4000-400 cm^−1. Differential Scanning Calorimetry measurements (DSC) were carried out on a TA Instruments Q2000 model in a sealed Al pan at a heating rate of 5° C. min^−1 in the temperature range between −80° C. and 100° C. The cyclic voltammetry measurements were performed in a cavity micro-electrode (CME) with an electrochemical interface area around a fraction of mm^2 and ohmic drop coming from the bulk of the electrolyte that can be neglected, allowing the use of high scan rates [C. Cachet-Vivier et al.; Electrochim. Acta 47, 181-189 (2001)]. The samples were studied electrochemically by using a three-electrode configuration cell in DI-H2O and the different supporting electrolytes with a platinum wire as counter electrode and Ag/AgCl or Hg/HgO as reference electrode depending of the acidic or basic pH of the media respectively.
The microcavity was filled with a homogenous mixture of active material (50 wt %) and carbon super C-65 (50 wt %) by applying pressure against an agate mortar. The cavity was cleaned by immersing the electrode in ethanol in an ultrasonic bath between experiments. For the CME, scan rates approximately an order of magnitude larger could be used without distortion usually seen in conventional cells [R. Lin et al., J. Electrochem. Soc. 1, A7-A12 (2009)]. All the experiments using CME were made three times for the same sample to check reliability. […] Cyclic voltammetry experiments were done from 10 mV/s to 1 V/s using a multichannel potentiostat/galvanostat (VMP3, Biologic). In order to make a direct comparison between the different samples, all current values were normalized to current values measured in the pure capacitive behavior region.

[4] abbreviates: aqueous BR buffer at pH=7, room temperature.
The mark [5] stands for this setting: pure/neat DI-H2O, room temperature.
Where [6] appears, read: vs. Ag/AgCl ref. electrode, BR buffer pH=7.

For `O=C1c2ccccc2C(=O)c2c1cc(S(=O)(=O)O)c(O)c2O` [Alizarin S. Red-H^+], the density of solution in data set [1] (1.17 M solution in H2O) came out at 1.00 g/mL; in data set [1] (1.23 M solution in H2O), 1.04 g/mL; in data set [1] (1.46 M solution in 0.1 M HClO4), 0.95 g/mL. In data set [2], the solubility was ~1500 mM (≈ 480 mg/mL). In data set [2], the “solubility (concentration values)” value was determined as 1600 mM (≈ 512 mg/mL).
As for `O=C1c2ccccc2C(=O)c2c1cc(S(=O)(=O)[O-])c(O)c2O.OC[P+](CO)(CO)CO` [Alizarin S. Red-TKMP], in data set [2], the solubility was ~1500 mM and the “solubility (concentration values)” value came to 1600 mM.
Take `O=C1/C(=C2\Nc3ccc(S(=O)(=O)O)cc3C2=O)Nc2ccc(S(=O)(=O)O)cc21` [Indigo Carmine-H^+]: the “solubility (highest concentration)” value in data set [2] (setting [4]) is ~400 mM (≈ 169 mg/mL); in data set [2] (setting [5]) it was ~600 mM (≈ 253 mg/mL). In data set [3] (BR buffer pH=3), the “separation of the pair of reversible reduction peaks” value was ~0.75 V. Also, the “peak separation of the two redox peaks” value in data set [3] (BR buffer pH=7) and in data set [3] (neat DI-H2O) was ~1 V throughout. For the same molecule, in data set [3] (BR buffer pH=9, stabilized at cycle 10), the “separation of both peaks” value was ~0.8 V. In addition, in data set [3] (DI-H2O, pH ~6), the “anodic shift in DI-H2O relative to BR buffer pH=7” value was ~170 mV.
On to `O=C1C(=C2Nc3ccc(S(=O)(=O)[O-])cc3C2=O)Nc2ccc(S(=O)(=O)[O-])cc21.[Na+].[Na+]` [Indigo Carmine-Na^+, 3,3′-dioxo-2,2′-bis-indolyden-5,5′-disulfonic acid disodium salt], for which the “anodic shift of both pairs of peaks relative to Indigo” value in data set [3] (BR buffer pH=7) is given as “approximately 80 mV”.
On to `O=C1/C(=C2\Nc3ccc(S(=O)(=O)[O-])cc3C2=O)Nc2ccc(S(=O)(=O)[O-])cc21.OCC[N+](CCO)(CCO)CCO.OCC[N+](CCO)(CCO)CCO` [Indigo Carmine-TKEN], for which the “solubility (highest concentration)” value in data set [2] (setting [4]) and in data set [2] (setting [5]) was “up to 0.76 M” throughout. Further, the “solubility (concentration values)” value in data set [2] was “up to 0.76 M”. In addition, in data set [3] (BR buffer pH=7), the “peak separation of the two redox peaks” value is reported as 1 V.
Regarding `O=C1C(=C2Nc3ccc(S(=O)(=O)[O-])cc3C2=O)Nc2ccc(S(=O)(=O)[O-])cc21.OC[P+](CO)(CO)CO.OC[P+](CO)(CO)CO` [Indigo Carmine-TKMP], in data set [3] (BR buffer pH=7), the “peak separation of the two redox peaks” value was determined as 1 V.
For the molecule `O=C1/C(=C2\Nc3ccccc3C2=O)Nc2ccccc21` [Indigo, 2,2′-Bis(2,3-dihydro-3-oxoindolylidene), reference compound], in data set [3] (setting [6]), the “reduction peak at negative potential” value is given as −0.44 V and the “reduction peak at positive potential” value turned out to be 0.31 V.
As for `O=C1c2ccccc2C(=O)c2c1ccc(O)c2O` [alizarin, 1,2-dihydroxy-9,10-anthraquinone, reference compound], in data set [3], the “shift of redox potential on sulphonation, lower oxidation state” value is ~50 mV and the “shift of redox potential on sulphonation, upper oxidation state” value is ~35 mV.
Take `O=C1c2ccccc2C(=O)c2c(O)ccc(O)c21` [quinizarin, 1,4-dihydroxy-9,10-anthraquinone, reference compound]: in data set [3], the “shift of redox potential on sulphonation, lower oxidation state” value was ~100 mV and the “shift of redox potential on sulphonation, upper oxidation state” value is reported as ~15 mV.
